The values below come from patent publication US6423707B1, “Nitroimidazole ester analogues and therapeutic applications” (California Pacific Medical Center, priority 2000, dated 2002).

≈ marks a conversion by molar mass, not a printed value. Like-named read-outs stand apart in the source and are kept apart here.

For data set [1], the system named is metronidazole resistant H. pylori isolate (ATCC strain 43579). The data set can be described thus: Helicobacter pylori microbicidal assay (Example 12). The class given is cell-based. As to conditions: for MBC: Helicobacter pylori.
Data set [2] deals with Ohio State university Helicobactor pylori isolate working seed lot #061697. The data set can be described thus: microbe, parasite or virus in culture. The data set is classed as cell-based. Conditions: Helicobacter pylori, 72 h, read-out: MBC OSU Isolate 061697.
Data set [3] has as its system Helicobactor pylori ATCC strain 43579. The experiment in a line: microbe, parasite or virus in culture. The class given is cell-based. Conditions: Helicobacter pylori, ATCC43579, 72 h, read-out: MBC H. Pylori 43579.
The subject of data set [4] is another H pylori isolate (a virulent human isolate used in the germ-free pig model). The experiment in a line: microbe, parasite or virus in culture. The class given is cell-based. Conditions: Helicobacter pylori.
Setting [5] is: ATCC43579, 72 h, read-out: MBC (Minimal Bactericidal Concentration), lowest concentration that killed 100% of the H. pylori working solution, ATCC strain 43579, metronidazole-resistant, 72 hours.
Where [6] appears, read: relative to positive control (=1), ATCC strain 43579.
Setting [7] is: ATCC43579, 72 h, read-out: MBC (Minimal Bactericidal Concentration).
The mark [8] stands for this setting: ATCC43579, lowest concentration that killed 100% of the H. pylori working solution, ATCC strain 43579, metronidazole-resistant, 72 hours, read-out: MBC (Minimal Bactericidal Concentration).

Usually melting point stands for the temperature, or range, at which the solid turns liquid.

Take “2-Methyl-5-nitro-1H-imidazole-1-ethyl 9,10-dihydro-9,10-dioxo-2-anthracenecarboxylate [Formula 9]”: in data set [1], the “Bactericidal Activity Index” value was found to be 7.4 and the “MBC (Minimal Bactericidal Concentration)” value amounted to 12 µg/mL.

Consider “2-Methyl-5-nitro-1H-imidazole-1-ethyl 9-oxo-9H-thioxanthene-3-carboxylate [Formula 6]”, for which, in data set [1], the “Bactericidal Activity Index” value is 6.4 and the “MBC (Minimal Bactericidal Concentration)” value was found to be 14 µg/mL.

Turning to “2-methyl-5-nitro-1H-imidazole-1-ethyl 1-ethyl-1,4-dihydro-7-methyl-4-oxo-1,8-naphthyridine-3-carboxylate [Formula 10]”, in data set [1], the “Bactericidal Activity Index” value is reported as 12.7 and the “MBC (Minimal Bactericidal Concentration)” value came out at 7 µg/mL.

On to `Cc1ncc([N+](=O)[O-])n1CCOC(=O)c1cccnc1` [Formula 1C, 2-Methyl-5-nitro-1H-imidazole-1-ethyl Nicotinate], for which the MBC in data set [2] was found to be 22.3 µg/mL; in data set [1] (setting [5]) it was 4 µg/mL; in data set [3], 22.3 µg/mL. Further, the “MBC (Minimal Bactericidal Concentration)” value in data set [1] (lowest concentration that killed 100% of the H. pylori working solution, ATCC strain 43579, metronidazole-resistant, 72 hours) worked out at 5 µg/mL. In addition, the “Bactericidal Activity Index” value in data set [1] (setting [6]) came to 17.8.

Molecule `Cc1ncc([N+](=O)[O-])n1CCOC(=O)c1ccc([N+](=O)[O-])o1` [Formula 2C, 2-Methyl-5-nitro-1H-imidazole-1-ethyl 5-nitro-2-furoate] returned a melting point of 150 to 152 °C. Further, in data set [2], the MBC is 12.6 µg/mL. In addition, the “Bactericidal Activity Index” value in data set [1] amounted to 29.7. In data set [1] (setting [7]), the MBC was 3 µg/mL. Moreover, the MBC in data set [3] stood at 12.6 µg/mL.

As for `Cc1ncc([N+](=O)[O-])n1CCOC(=O)c1cc(C(=O)OCCn2c([N+](=O)[O-])cnc2C)cc([N+](=O)[O-])c1` [Formula 3C, Di (2-methyl-5-nitro-1H-imidazole-1-ethyl) 5-nitro-1,3-benzenedicarboxylate], the MBC in data set [2] was determined as 19.8 µg/mL; in data set [1] (setting [7]), 3 µg/mL; in data set [3] it was 19.8 µg/mL. Besides, the “Bactericidal Activity Index” value in data set [1] stood at 29.7.

Regarding `Cc1ncc([N+](=O)[O-])n1CCOC(=O)c1cc(-c2ccccc2)nc2ccccc12` [Formula 4C, 2-Methyl-5-nitro-1H-imidazole-1-ethyl 2-phenyl-4-quinolinecarboxylate], the melting point lay within 122 to 124 °C. The molecule further came in with an MBC in data set [4] of 10.2 µg/mL. For the same molecule, the MBC in data set [2] was 20.5 µg/mL. Also, the MBC in data set [1] (setting [5]) was 2 µg/mL. Moreover, the “Bactericidal Activity Index” value in data set [1] (setting [6]) is given as 45. For the same molecule, the MBC in data set [3] was found to be 10.3 µg/mL.

For the molecule `Cc1ncc([N+](=O)[O-])n1CCOC(=O)N1c2ccccc2Sc2ccccc21` [Formula 5C, 2-Methyl-5-nitro-1H-imidazole-1-ethyl phenothiazine-10-carboxylate], the MBC in data set [4] amounted to 10.2 µg/mL; in data set [2] it was 10.3 µg/mL; in data set [1] (setting [5]), 2 µg/mL; in data set [3], 10.3 µg/mL. For the same molecule, the “Bactericidal Activity Index” value in data set [1] (setting [6]) was determined as 44.5.

For `Cc1ncc([N+](=O)[O-])n1CCOC(=O)c1cc(=O)c2ccccc2o1` [Formula 7, 2-Methyl-5-nitro-1H-imidazole-1-ethyl 4-oxo-4H-1-benzopyran-2-carboxylate], the melting point was 210 to 212 °C (dec.). In addition, the MBC in data set [1] (setting [8]) was 10 µg/mL. The “Bactericidal Activity Index” value in data set [1] (setting [6]) was determined as 8.9.

As for `Cc1ncc([N+](=O)[O-])n1CCOC(=O)c1ccc(-c2ccc(Cl)cc2[N+](=O)[O-])o1` [Formula 13], in data set [1] (setting [7]), the MBC was above 97 µg/mL.

For `CCn1cc(C(=O)OCCn2c([N+](=O)[O-])cnc2C)c(=O)c2ccc(C)nc21` [Formula 15], the MBC in data set [1] (setting [8]) was determined as 15 µg/mL. Moreover, the “Bactericidal Activity Index” value in data set [1] (setting [6]) worked out at 8.9.

As for `Cc1ncc([N+](=O)[O-])n1CCO` [Positive Control, metronidazole, reference compound], in data set [1] (setting [8]), the MBC is 89 µg/mL (≈ 520 µM). Besides, in data set [1] (setting [6]), the “Bactericidal Activity Index” value is 1.
